From ChEMBL document CHEMBL6114953, “De novo discovery of cyclic peptide inhibitors of IL-11 signaling” (Bioorg Med Chem, 2025)
One block for each compound: values may come before it. The source made the active and inactive calls. The calls are words filed in the database; no cut-off is given here. Where a SMILES comes first, the peptide text is derived from it. Bridges are numbered along the chain shown (N, C = ends). [ ]: non-standard residue; d: D form. Nle = CCCC[C@H](N)C(=O)O

Experiments:
[1] = Inhibition of his-tagged recombinant human IL-11 (22 to 199 residues) expressed in HEK293 cells/biotinylated recombinant human IL-11Ralpha (24 to 370 residues) expressed in HEK293 cells incubated for 1 hr by AlphaLISA assay; assay type: cell-based
[2] = molecular target: T1, Interleukin-11 receptor subunit alpha (Homo sapiens) (UniProt Q14626); assay: Binding affinity to CAP chip-immobilized biotinylated recombinant human IL-11Ralpha by SPR analysis
T1 sequence (whole entry): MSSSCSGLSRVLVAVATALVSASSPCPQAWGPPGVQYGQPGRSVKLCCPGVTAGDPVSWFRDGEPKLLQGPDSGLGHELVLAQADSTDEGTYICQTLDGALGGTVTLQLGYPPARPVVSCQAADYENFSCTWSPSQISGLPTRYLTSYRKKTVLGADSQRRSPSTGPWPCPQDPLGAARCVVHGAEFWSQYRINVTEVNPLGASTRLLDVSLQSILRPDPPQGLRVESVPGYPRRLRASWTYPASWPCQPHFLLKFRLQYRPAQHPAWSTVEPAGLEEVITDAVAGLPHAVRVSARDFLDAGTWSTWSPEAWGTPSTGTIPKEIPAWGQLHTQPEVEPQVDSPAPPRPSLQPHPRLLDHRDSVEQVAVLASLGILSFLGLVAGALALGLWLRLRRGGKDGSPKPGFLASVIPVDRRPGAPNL

[3] = Binding affinity to CAP chip-immobilized IL-6 (unknown origin) by SPR analysis; conditions: Homo sapiens
Homo sapiens = species on record: Homo sapiens; assay: Binding affinity to CAP chip-immobilized IL-6R (unknown origin) by SPR analysis
[4] = molecular target: T2, Interleukin-11 (Homo sapiens) (UniProt P20809); assay: Binding affinity to CAP chip-immobilized IL-11 (unknown origin) by SPR analysis
T2 sequence (whole entry): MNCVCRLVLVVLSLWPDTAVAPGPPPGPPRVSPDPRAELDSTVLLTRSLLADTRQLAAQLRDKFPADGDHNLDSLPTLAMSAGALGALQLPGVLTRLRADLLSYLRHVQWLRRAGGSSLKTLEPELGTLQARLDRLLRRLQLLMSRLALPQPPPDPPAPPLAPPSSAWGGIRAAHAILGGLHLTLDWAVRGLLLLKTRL

Interleukin-11 = molecular target: T3, Interleukin-11 (Homo sapiens, UniProt P20809); assay: Binding affinity to CAP chip-immobilized IL-11 (unknown origin) assessed as dissociation constant by SPR analysis
T3 sequence (P20809 whole entry): T2 sequence (whole entry)

Compound: CSCC[C@@H]1NC(=O)[C@H](Cc2c[nH]cn2)NC(=O)[C@H](CO)NC(=O)[C@@H](NC(=O)[C@H](Cc2c[nH]c3ccccc23)NC(=O)[C@H](Cc2ccc(O)cc2)NC(=O)[C@H](Cc2ccccc2)NC(=O)[C@H](CCC(N)=O)NC(=O)[C@@H](NC(C)=O)C(C)C)CSSC[C@@H](C(=O)N[C@@H](Cc2c[nH]c3ccccc23)C(=O)N[C@@H](CCCNC(=N)N)C(N)=O)NC(=O)[C@H](C(C)C)NC(=O)[C@H]([C@@H](C)O)NC(=O)[C@H]([C@@H](C)O)NC(=O)[C@H](Cc2ccc(O)cc2)NC(=O)[C@H](Cc2ccc(O)cc2)NC1=O (Ac-VQFYWCSHMYYTTVCWR-NH2; disulfide 6-15)
- Ki [1]: 700 nM

Compound: CC(C)C[C@@H]1NC(=O)[C@H](CCC(=O)O)NC(=O)[C@H](Cc2ccccc2)NC(=O)[C@H](CCC(N)=O)NC(=O)[C@@H]2CCCN2C(=O)[C@H](Cc2c[nH]c3ccccc23)NC(=O)[C@H](C(C)C)NC(=O)[C@H](Cc2ccc(O)cc2)NC(=O)[C@@H](NC(=O)[C@H](Cc2ccccc2)NC(=O)[C@H](CCC(=O)O)NC(=O)[C@@H](NC(=O)[C@@H](NC(=O)[C@H](CCC(=O)O)NC(=O)[C@H](C)N)[C@@H](C)O)C(C)C)CSSC[C@@H](C(N)=O)NC(=O)[C@H](C(C)C)NC1=O (H-AETVEFCYVWPQFELVC-NH2; disulfide 7-17)
- Ki [1]: 310 nM

Compound: CC(=O)N[C@@H](Cc1ccc(O)cc1)C(=O)N[C@@H](Cc1c[nH]c2ccccc12)C(=O)N[C@H]1CSSC[C@@H](C(=O)N[C@@H](Cc2c[nH]c3ccccc23)C(=O)N[C@@H](CCCNC(=N)N)C(N)=O)NC(=O)[C@H](C(C)C)NC(=O)[C@H]([C@@H](C)O)NC(=O)[C@H]([C@@H](C)O)NC(=O)[C@H](Cc2ccc(O)cc2)NC(=O)[C@H](Cc2ccc(O)cc2)NC(=O)[C@H](CC(C)C)NC(=O)[C@H](Cc2c[nH]cn2)NC(=O)[C@H](CO)NC1=O (Ac-YWCSHLYYTTVCWR-NH2; disulfide 3-12)
- Ki [1]: 1900 nM

Compound: CCCC[C@@H]1NC(=O)[C@H](Cc2c[nH]cn2)NC(=O)[C@H](CO)NC(=O)[C@@H](NC(=O)[C@H](Cc2c[nH]c3ccccc23)NC(=O)[C@H](Cc2ccc(O)cc2)NC(=O)[C@H](Cc2ccccc2)NC(=O)[C@H](CCC(N)=O)NC(=O)[C@@H](NC(=O)[C@@H](NC(=O)[C@H](CCC(N)=O)NC(=O)[C@H](C)N)[C@@H](C)O)C(C)C)CSSC[C@@H](C(=O)N[C@@H](Cc2c[nH]c3ccccc23)C(=O)N[C@@H](CCCNC(=N)N)C(N)=O)NC(=O)[C@H](C(C)C)NC(=O)[C@H]([C@@H](C)O)NC(=O)[C@H]([C@@H](C)O)NC(=O)[C@H](Cc2ccc(O)cc2)NC(=O)[C@H](Cc2ccc(O)cc2)NC1=O (H-AQTVQFYWCSH[Nle]YYTTVCWR-NH2; disulfide 9-18)
- Ki [1]: 260 nM

Compound: CSCC[C@@H]1NC(=O)[C@H](Cc2c[nH]cn2)NC(=O)[C@H](CO)NC(=O)[C@@H](NC(=O)[C@H](Cc2c[nH]c3ccccc23)NC(=O)[C@H](Cc2ccc(O)cc2)NC(=O)[C@H](Cc2ccccc2)NC(=O)[C@H](CCC(N)=O)NC(C)=O)CSSC[C@@H](C(=O)N[C@@H](Cc2c[nH]c3ccccc23)C(=O)N[C@@H](CCCNC(=N)N)C(N)=O)NC(=O)[C@H](C(C)C)NC(=O)[C@H]([C@@H](C)O)NC(=O)[C@H]([C@@H](C)O)NC(=O)[C@H](Cc2ccc(O)cc2)NC(=O)[C@H](Cc2ccc(O)cc2)NC1=O (Ac-QFYWCSHMYYTTVCWR-NH2; disulfide 5-14)
- Ki [1]: 270 nM

Compound: CSCC[C@@H]1NC(=O)[C@H](Cc2c[nH]cn2)NC(=O)[C@H](CO)NC(=O)[C@@H](NC(=O)[C@H](Cc2c[nH]c3ccccc23)NC(C)=O)CSSC[C@@H](C(=O)N[C@@H](Cc2c[nH]c3ccccc23)C(=O)N[C@@H](CCCNC(=N)N)C(N)=O)NC(=O)[C@H](C(C)C)NC(=O)[C@H]([C@@H](C)O)NC(=O)[C@H]([C@@H](C)O)NC(=O)[C@H](Cc2ccc(O)cc2)NC(=O)[C@H](Cc2ccc(O)cc2)NC1=O (Ac-WCSHMYYTTVCWR-NH2; disulfide 2-11)
- Ki [1]: 3200 nM

Compound: CSCC[C@@H]1NC(=O)[C@H](Cc2c[nH]cn2)NC(=O)[C@H](CO)NC(=O)[C@@H](NC(=O)[C@H](Cc2c[nH]c3ccccc23)NC(=O)[C@H](Cc2ccc(O)cc2)NC(=O)[C@H](Cc2ccccc2)NC(=O)[C@H](CCC(N)=O)NC(=O)[C@@H](NC(=O)[C@@H](NC(=O)[C@H](CCC(N)=O)NC(=O)[C@H](C)N)[C@@H](C)O)C(C)C)CSSC[C@@H](C(=O)N[C@@H](Cc2c[nH]c3ccccc23)C(=O)N[C@@H](CCCNC(=N)N)C(N)=O)NC(=O)[C@H](C(C)C)NC(=O)[C@H]([C@@H](C)O)NC(=O)[C@H]([C@@H](C)O)NC(=O)[C@H](Cc2ccc(O)cc2)NC(=O)[C@H](Cc2ccc(O)cc2)NC1=O (H-AQTVQFYWCSHMYYTTVCWR-NH2; disulfide 9-18)
- Ki [1]: 180 nM

Further lines, with some results ahead:

- Activity [2]: inactive
- Activity [3]: inactive
- Activity (Homo sapiens): inactive
Compound: Cc1c(-c2ccc(O)cc2)n(Cc2ccc(OCCN3CCCCCC3)cc2)c2ccc(O)cc12 [BAZEDOXIFENE]
- Ki [1]: 11800 nM

- Activity [4]: inactive
- Activity [2]: inactive
- Activity [3]: inactive
- Activity (Homo sapiens): inactive
Compound: C=C(CCCCC)[C@@H](O)[C@H](C)C(=O)N1C(=O)OC[C@@H]1C(C)C
- Ki [1]: > 28000 nM

- Activity [4]: inactive
- Activity [2]: inactive
- Activity [3]: inactive
- Activity (Homo sapiens): inactive
Compound: CC(C)C[C@@H]1NC(=O)[C@@H]2CCCN2C(=O)[C@H](CC(C)C)NC(=O)[C@H](Cc2c[nH]c3ccccc23)NC(=O)[C@@H](NC(=O)[C@H](Cc2ccccc2)NC(=O)[C@H](CCC(=O)O)NC(=O)[C@@H](NC(=O)[C@@H](NC(=O)[C@H](CCC(=O)O)NC(=O)[C@H](C)N)[C@@H](C)O)C(C)C)CSSC[C@@H](C(N)=O)NC(=O)[C@H](Cc2ccccc2)NC(=O)[C@H](Cc2ccc(O)cc2)NC(=O)[C@H](Cc2c[nH]c3ccccc23)NC(=O)[C@H](Cc2c[nH]cn2)NC(=O)[C@H](CO)NC1=O (H-AETVEFCWLPLSHWYFC-NH2; disulfide 7-17)
- Ki [1]: 1360 nM

- Activity [4]: inactive
- Activity [2]: inactive
- Activity [3]: inactive
- Activity (Homo sapiens): inactive
Compound: C[C@@H]1NC(=O)[C@H](CCCNC(=N)N)NC(=O)[C@H](CCCNC(=N)N)NC(=O)CNC(=O)[C@@H](N)CSSC[C@@H](C(N)=O)NC(=O)[C@H](CO)NC(=O)CNC(=O)CNC1=O (H-CGRRAGGSC-NH2; disulfide 1-9)
- Ki [1]: > 28000 nM

- Activity [4]: inactive
- Activity [2]: inactive
- Activity [3]: inactive
- Activity (Homo sapiens): inactive
Compound: CC(C)C[C@@H]1NC(=O)[C@@H]2CCCN2C(=O)[C@H](C(C)C)NC(=O)[C@H](Cc2c[nH]c3ccccc23)NC(=O)[C@@H](NC(=O)[C@H](Cc2ccccc2)NC(=O)[C@H](CCC(=O)O)NC(=O)[C@@H](NC(=O)[C@@H](NC(=O)[C@H](CCC(=O)O)NC(=O)[C@H](C)N)[C@@H](C)O)C(C)C)CSSC[C@@H](C(N)=O)NC(=O)[C@H](C(C)C)NC(=O)[C@H](CCC(N)=O)NC(=O)[C@H](Cc2ccccc2)NC(=O)[C@H](Cc2ccc(O)cc2)NC(=O)[C@H](CO)NC1=O (H-AETVEFCWVPLSYFQVC-NH2; disulfide 7-17)
- Ki [1]: 1500 nM

- Kd (Interleukin-11): 2600 nM
- Activity [2]: inactive
- Activity [3]: inactive
- Activity (Homo sapiens): inactive
Compound: CC(C)[C@@H]1NC(=O)[C@H](CCCNC(=N)N)NC(=O)[C@@H]2CCCN2C(=O)[C@H](CC(=O)O)NC(=O)[C@H](Cc2ccc(O)cc2)NC(=O)[C@H](Cc2c[nH]c3ccccc23)NC(=O)CNC(=O)[C@@H](NC(=O)[C@H](Cc2ccc(O)cc2)NC(=O)[C@H](Cc2c[nH]c3ccccc23)NC(=O)[C@H](Cc2ccccc2)NC(=O)[C@H](CCC(=O)O)NC(=O)[C@@H](NC(=O)[C@@H](NC(=O)[C@H](CCC(=O)O)NC(=O)[C@H](C)N)[C@@H](C)O)C(C)C)CSSC[C@@H](C(=O)N[C@@H](CO)C(=O)N[C@@H](Cc2ccc(O)cc2)C(N)=O)NC(=O)CNC1=O (H-AETVEFWYCGWYDPRVGCSY-NH2; disulfide 9-18)
- Ki [1]: 500 nM

- Kd (Interleukin-11): 140 nM
- Activity [2]: inactive
- Activity [3]: inactive
- Activity (Homo sapiens): inactive
Compound: CSCC[C@@H]1NC(=O)[C@H](Cc2c[nH]cn2)NC(=O)[C@H](CO)NC(=O)[C@@H](NC(=O)[C@H](Cc2c[nH]c3ccccc23)NC(=O)[C@H](Cc2ccc(O)cc2)NC(C)=O)CSSC[C@@H](C(=O)N[C@@H](Cc2c[nH]c3ccccc23)C(=O)N[C@@H](CCCNC(=N)N)C(N)=O)NC(=O)[C@H](C(C)C)NC(=O)[C@H]([C@@H](C)O)NC(=O)[C@H]([C@@H](C)O)NC(=O)[C@H](Cc2ccc(O)cc2)NC(=O)[C@H](Cc2ccc(O)cc2)NC1=O (Ac-YWCSHMYYTTVCWR-NH2; disulfide 3-12)
- Ki [1]: 300 nM
